According to patent publication US6420559B1, “1-(4-arylpiperazin-1-yl)-ω-[N-(α,ω-dicarboximido)]-alkanes useful as uro-selective α1-adrenoceptor blockers” (Ranbaxy Laboratories Limited, priority 1997, dated 2002):
Structures can show the parent of a compound that is named as a salt. Blank lines part the entries; values can stand above or below the compound they belong to.

What was measured:
[1] = tested on: anaesthetized dogs; assay: In vivo selectivity study, phenylephrine-induced blood pressure and intraurethral pressure in anaesthetized dogs; set-up: species or system dog; conditions: iv, against phenylephrine dose response
Procedure: Male mongrel dogs (12-20 Kg) were anaesthetized with pentobarbitone sodium (35 mg/kg, iv). Trachea was intubated for artificial respiration. Femoral artery and femoral vein were cannulated for recording blood pressure and for administration of drug solutions, respectively. Blood pressure was recorded on a polygraph through a pressure transducer. A paramedian incision was made lateral to the penis and the bladder was exposed. Urine was drained through a cannula put directly into the bladder and it was guided into the urethra gently and was placed at the prostatic urethra. Balloon was inflated with 2 cc air and its placement was confirmed by digital pressure. Intraurethral pressure was recorded on the polygraph through a pressure transducer. Graded dose response relationship of phenylephrine (1-16 μg/kg, iv) was obtained on prostatic pressure and blood pressure, prior to administration of the compounds of the present invention. Compounds 2, 9, and 13 (at dosages of 0.01, 0.03, 0.1, and 0.3 mg/kg) were administered intravenously 10 min before obtaining phenylephrine dose response curves. Results were analyzed and pseudo pKB values were calculated as described in Kenny et al (1996).

[2] = tested on: conscious freely moving normotensive rats; assay: Mean arterial blood pressure in conscious freely moving normotensive rats, oral; format: in vivo, rat
Procedure: Femoral artery of normotensive male wistar rats, maintained on an overnight light diet, were catheterized under pentobarbitone anaesthesia (35 mg/kg). Femoral artery catheter was exteriorized through the neck region for blood pressure recording. […] Blood pressure and heart rate were recorded with the help of Statham pressure transducer on a Grass polygraph and the results are shown in Table 4.

[3] = tested on: anaesthetized normotensive rats; assay: In vivo blood pressure, anaesthetized normotensive rats, intravenous route; set-up: species or system rat; conditions: 0.3 mg/kg intravenous, 3 hours observation
Procedure: (§1) Antihypertensive effect of selected compounds according to the invention were studied for their ability to lower blood pressure in anaesthetized and conscious normotensive and spontaneously hypertensive rats via intravenous, oral and intraduodenal routes.
Male wistar rats were anaesthetized with urethane (2.5 g/kg). Femoral vein and carotid artery were cannulated. Blood pressure and heart rate were recorded using Statham pressure transducer. Data was recorded on Grass polygraph as well as using online data acquisition system (Buxco AT). Intravenously administered compounds of the invention were initially tested at 0.3 mg/kg over a period of 3 hours for their effect on blood pressure and the results are shown in Table 1. For a select few of the compounds, the blood pressure lowering effect upon intravenous administration was also studied at dosages of 0.03, 0.1, 0.3, and 1 mg/kg.

[4] = tested on: conscious spontaneously hypertensive rats; assay: Systolic blood pressure in conscious spontaneously hypertensive rats, oral; format: in vivo, rat
Procedure: Spontaneously hypertensive rats weighing between 250-300 g were used in this study. Rats were fasted overnight. Blood pressure was monitored from tail artery using semi-automatic noninvasive blood pressure monitoring apparatus. Compounds of the present invention (at dosages of 1, 3, 10, and 30 mg/kg) were administered orally. Blood pressure was monitored prior to and 1.5, 4, 6 and 24 hours after drug administration.

[5] = tested on: anaesthetized normotensive rats; assay: Mean arterial pressure in anaesthetized normotensive rats, intraduodenal route; format: in vivo, rat
Procedure: as §1
Male wistar rats were fasted for 18 hours. Rats were anaesthetized with urethane. Femoral vein and carotid artery were cannulated. A catheter was placed in the duodenum following lapratomy. The compounds of the present invention (at dosages of 0.3, 1, 3 and 10 mg/kg) were administered in the duodenum and blood pressure was monitored for 3 hours.

[6] = biological target: Muscarinic cholinergic receptor (Rattus norvegicus, UniProt P08483); assay: In vitro receptor selectivity, rat trachea; format: cell-based
Chain of Muscarinic cholinergic receptor (P08483 whole entry): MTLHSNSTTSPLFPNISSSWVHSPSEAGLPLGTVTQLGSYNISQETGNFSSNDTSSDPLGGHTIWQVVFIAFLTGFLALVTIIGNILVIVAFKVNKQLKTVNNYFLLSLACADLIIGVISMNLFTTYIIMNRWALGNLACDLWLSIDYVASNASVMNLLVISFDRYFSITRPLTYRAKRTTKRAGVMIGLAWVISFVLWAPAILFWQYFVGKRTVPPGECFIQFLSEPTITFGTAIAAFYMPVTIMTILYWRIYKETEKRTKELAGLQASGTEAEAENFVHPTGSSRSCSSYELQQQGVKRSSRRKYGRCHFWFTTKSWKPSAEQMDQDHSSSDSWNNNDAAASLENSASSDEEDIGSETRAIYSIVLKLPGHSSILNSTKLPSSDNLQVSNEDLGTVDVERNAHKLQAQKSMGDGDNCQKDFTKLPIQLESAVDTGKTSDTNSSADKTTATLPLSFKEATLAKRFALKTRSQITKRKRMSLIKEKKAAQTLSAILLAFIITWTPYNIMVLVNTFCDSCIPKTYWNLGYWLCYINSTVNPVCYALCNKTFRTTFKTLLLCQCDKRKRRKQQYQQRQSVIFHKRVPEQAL
Procedure: (§2) Selectivity of action of the present compounds was tested against a range of different receptors, e.g., β1- and α2-adrenergic, muscarinic cholinergic, serotoninergic (5-HT2A), histaminergic (H1), angiotensin II, endothelin (ETA and B,), as well as calcium and potassium channels. Rat aorta was used to study the effect of the compounds on 5-HT2A, ETA, calcium and potassium channels. Angiotensin II receptor antagonistic activity was studied in rabbit aorta. Muscarinic cholinergic receptor and ETB receptor antagonistic activity was studied in rat trachea, while guinea pig trachea was used to study H1 receptor antagonistic activity. Electrically stimulated rat vas deferens was used to investigate the effect of α2-adrenoceptors, while β1-adrenoceptor antagonistic activity was studied using electrically stimulated rat ventricular strips. Results of this selectivity study is shown in (Table 2).

[7] = tested on: Potassium Channel; assay: In vitro receptor selectivity, rat aorta; format: cell-based; conditions: NE: No effect
Procedure: as §2

[8] = biological target: α1-adrenergic; conditions: cited from earlier work

SMILES: COc1ccccc1N1CCN(CCCCN2C(=O)CCC2=O)CC1 [Compound 9, 1-[4-(2-Methoxyphenyl)piperazin-1-yl]-4-(2,5-dioxopyrrolidin-1-yl)butane]
- pseudo pKB Blood Pressure [1]: 7.4
- pseudo pKB Intraurethral Pressure [1]: 7.9
- Mean Arterial Pressure (% Change from basal) ([2]; 1 mg/kg oral): −4%
- Mean Arterial Pressure (% Change from basal) ([2]; 10 mg/kg oral): −11%
- Duration [3]: >180 min
- In Vivo BP Fall in mmHg [3]: 46 mmHg
- Systolic Pressure (% Change from basal) (at 6 hours) ([4]; 1 mg/kg oral): −0.4%
- Systolic Pressure (% Change from basal) (at 6 hours) ([4]; 3 mg/kg oral): −7.0%
- Systolic Pressure (% Change from basal) (at 6 hours) ([4]; 10 mg/kg oral): −24.0%
- Systolic Pressure (% Change from basal) (at 6 hours) ([4]; 30 mg/kg oral): −25.0%
- Duration of Action ([5]; 1 mg/kg intraduodenal): >3.0 h
- Mean Arterial Pressure (% Change from basal) ([5]; 1 mg/kg intraduodenal): −19%
- Duration of Action ([5]; 3 mg/kg intraduodenal): >3.0 h
- Mean Arterial Pressure (% Change from basal) ([5]; 3 mg/kg intraduodenal): −53%
- Duration of Action ([5]; 10 mg/kg intraduodenal): >3.0 h
- Mean Arterial Pressure (% Change from basal) ([5]; 10 mg/kg intraduodenal): −57%
- pKB Muscarinic [6]: 5.0

SMILES: COc1ccccc1N1CCN(CCCN2C(=O)CCC2=O)CC1 [Compound 2, 1-[4-(2-Methoxyphenyl)piperazin-1-yl]-3-(2,5-dioxopyrrolidin-1-yl)propane]
- pseudo pKB Blood Pressure [1]: 6.9
- pseudo pKB Intraurethral Pressure [1]: 7.60
- Mean Arterial Pressure (% Change from basal) ([2]; 3 mg/kg oral): −14%
- Mean Arterial Pressure (% Change from basal) ([2]; 10 mg/kg oral): −10%
- Duration [3]: 120.0 min
- In Vivo BP Fall in mmHg [3]: 25 mmHg
- Systolic Pressure (% Change from basal) (at 6 hours) ([4]; 1 mg/kg oral): −7.0%
- Systolic Pressure (% Change from basal) (at 6 hours) ([4]; 3 mg/kg oral): −12.0%
- Systolic Pressure (% Change from basal) (at 6 hours) ([4]; 10 mg/kg oral): −13.0%
- Systolic Pressure (% Change from basal) (at 6 hours) ([4]; 30 mg/kg oral): −17.0%
- Duration of Action ([5]; 1 mg/kg intraduodenal): >2.5 h
- Mean Arterial Pressure (% Change from basal) ([5]; 1 mg/kg intraduodenal): −19%
- Duration of Action ([5]; 3 mg/kg intraduodenal): >2.5 h
- Mean Arterial Pressure (% Change from basal) ([5]; 3 mg/kg intraduodenal): −43%
- Duration of Action ([5]; 10 mg/kg intraduodenal): >2.5 h
- Mean Arterial Pressure (% Change from basal) ([5]; 10 mg/kg intraduodenal): −42%
- pKB Muscarinic [6]: 5.0

SMILES: O=C1CCC(=O)N1CCCN1CCN(c2ccc(F)cc2)CC1 (as salt: hydrochloride) [Compound 1, 1-[4-(4-Fluorophenyl)piperazin-1-yl]-3-(2,5-dioxopyrrolidin-1-yl)propane]
- melting point: 246 to 247 °C

SMILES: Cc1ccccc1N1CCN(CCCN2C(=O)CCCC2=O)CC1 [Compound 18, 1-[4-(2-Methylphenyl)piperazin-1-yl]-3-(2,6-dioxopiperidin-1-yl)propane]
- Duration [3]: >150 min
- In Vivo BP Fall in mmHg [3]: 40.0 mmHg

- melting point: 206 to 207 °C
SMILES: Cc1ccccc1N1CCN(CCCN2C(=O)CCCC2=O)CC1 (as salt: hydrochloride) [Compound 18, 1-[4-(2-Methylphenyl)piperazin-1-yl]-3-(2,6-dioxopiperidin-1-yl)propane]

SMILES: COc1ccccc1N1CCN(CCCN2C(=O)CCCC2=O)CC1 [Compound 13, 1-[4-(2-Methoxyphenyl)piperazin-1-yl]-3-(2,6-dioxopiperidin-1-yl)propane]
- pseudo pKB Blood Pressure [1]: 7.1
- pseudo pKB Intraurethral Pressure [1]: 8.1
- Mean Arterial Pressure (% Change from basal) ([2]; 1 mg/kg oral): −5%
- Mean Arterial Pressure (% Change from basal) ([2]; 3 mg/kg oral): −10%
- Duration [3]: >180 min
- In Vivo BP Fall in mmHg [3]: 50.0 mmHg
- Systolic Pressure (% Change from basal) (at 6 hours) ([4]; 1 mg/kg oral): −7.0%
- Systolic Pressure (% Change from basal) (at 6 hours) ([4]; 3 mg/kg oral): −18.0%
- Systolic Pressure (% Change from basal) (at 6 hours) ([4]; 10 mg/kg oral): −19.0%
- Systolic Pressure (% Change from basal) (at 6 hours) ([4]; 30 mg/kg oral): −14.0%
- pKB Potassium Channel [7]: 5
- Duration of Action ([5]; 1 mg/kg intraduodenal): <3.0 h
- Mean Arterial Pressure (% Change from basal) ([5]; 1 mg/kg intraduodenal): −32%
- Duration of Action ([5]; 3 mg/kg intraduodenal): >3.0 h
- Mean Arterial Pressure (% Change from basal) ([5]; 3 mg/kg intraduodenal): −40%
- Duration of Action ([5]; 10 mg/kg intraduodenal): >3.0 h
- Mean Arterial Pressure (% Change from basal) ([5]; 10 mg/kg intraduodenal): −42%
- pKB Muscarinic [6]: 5.5

SMILES: COc1cc2nc(N3CCN(C(=O)c4ccco4)CC3)nc(N)c2cc1OC [prazosin]
- α1-adrenergic blocking activity (pKi) [8]: > 8

SMILES: O=C1CCC(=O)N1CCCN1CCN(c2ccc(F)cc2)CC1 [Compound 1, 1-[4-(4-Fluorophenyl)piperazin-1-yl]-3-(2,5-dioxopyrrolidin-1-yl)propane]
- Duration [3]: 15.0 min
- In Vivo BP Fall in mmHg [3]: 5.0 mmHg

SMILES: COc1ccccc1N1CCN(CCCN2C(=O)CCC2=O)CC1 (as salt: hydrochloride) [Compound 2, 1-[4-(2-Methoxyphenyl)piperazin-1-yl]-3-(2,5-dioxopyrrolidin-1-yl)propane]
- melting point: 199 to 202 °C

- melting point: 206 to 208 °C
SMILES: O=C1CCCC(=O)N1CCCN1CCN(c2ccc(Cl)cc2)CC1 (as salt: hydrochloride) [Compound 15, 1-[4-(4-Chlorophenyl)piperazin-1-yl]-3-(2,6-dioxopiperidin-1-yl)propane]

SMILES: O=C1CCCC(=O)N1CCCN1CCN(c2ccc(F)cc2)CC1 [Compound 14, 1-[4-(4-Fluorophenyl)piperazin-1-yl]-3-(2,6-dioxopiperidin-1-yl)propane]
- Duration [3]: 60.0 min
- In Vivo BP Fall in mmHg [3]: 20.0 mmHg
- melting point: 200 to 202 °C

SMILES: O=C1CCCC(=O)N1CCCN1CCN(c2ccccc2F)CC1 [Compound 17, 1-[4-(2-Fluorophenyl)piperazin-1-yl]-3-(2,6-dioxopiperidin-1-yl)propane]
- Duration [3]: 120.0 min
- In Vivo BP Fall in mmHg [3]: 50.0 mmHg
